SMILES strings stand for the structures. Values after ≈ are worked out from the molar mass of the structure shown. Active and inactive are the calls of the source. The rule behind the calls is not given here.

The test system of experiment [1] is Plenodomus lingam. Put plainly: Antifungal activity against Leptosphaeria maculans assessed as reduction of germ tube length at 1 ug/ml after 22 hr relative to control. It counts as functional. Also on record: scale not given: the % may be the effect or the level left.
Experiment [2] has as its system Plenodomus biglobosus. Put plainly: Antifungal activity against Leptosphaeria biglobosa assessed as reduction of conidia production at 1 to 4 ug/ml after 2 weeks. It counts as functional, organism-based.
In experiment [3] the test system is Plenodomus lingam. Put plainly: Antifungal activity against Leptosphaeria maculans assessed as viable ascospore at 1 to 4 ug/ml after 1 week. It counts as functional, organism-based.
Experiment [4] has as its system Plenodomus biglobosus. Put plainly: Antifungal activity against Leptosphaeria biglobosa assessed as reduction of germ tube length at 4 ug/ml after 22 hr relative to control. Also on record: scale not given: the % may be the effect or the level left. It counts as functional.
Experiment [5] deals with Plenodomus biglobosus. Put plainly: Antifungal activity against Leptosphaeria biglobosa assessed as viable conidia at 2 to 4 ug/ml after 1 week. Format: functional, organism-based.
The subject of experiment [6] is Plenodomus lingam. The experiment is described as follows: Antifungal activity against Leptosphaeria maculans assessed as reduction of germ tube length at 4 ug/ml after 22 hr relative to control. Format: functional. Further details: scale not given: the % may be the effect or the level left.
For experiment [7], the system named is Plenodomus biglobosus. The experiment is described as follows: Antifungal activity against Leptosphaeria biglobosa assessed as reduction of germ tube length at 1 ug/ml after 22 hr relative to control. It counts as functional. Also on record: scale not given: the % may be the effect or the level left.
Experiment [8] has as its system Plenodomus lingam. The experiment is described as follows: Antifungal activity against Leptosphaeria maculans assessed as inhibition of conidia germination at 4 ug/ml after 22 hr. Format: functional.
The subject of experiment [9] is Plenodomus biglobosus. Put plainly: Antifungal activity against Leptosphaeria biglobosa assessed as reduction of germ tube length at 2 ug/ml after 22 hr relative to control. It counts as functional. Further details: scale not given: the % may be the effect or the level left.
For experiment [10], the system named is Plenodomus lingam. The experiment is described as follows: Antifungal activity against Leptosphaeria maculans assessed as reduction of germ tube length at 2 ug/ml after 22 hr relative to control. It counts as functional. Further details: scale not given: the % may be the effect or the level left.
The subject of experiment [11] is Plenodomus lingam. The experiment is described as follows: Antifungal activity against Leptosphaeria maculans assessed as reduction of conidia production at 1 to 4 ug/ml after 2 weeks. It counts as functional, organism-based.
Experiment [12] has as its system Plenodomus lingam. The experiment is described as follows: Antifungal activity against Leptosphaeria maculans assessed as ascospore germination at 1 to 4 ug/ml after 22 hr. Format: functional.
Experiment [13] relates to Plenodomus biglobosus. The experiment is described as follows: Antifungal activity against Leptosphaeria biglobosa assessed as ascospore germination at 1 to 4 ug/ml after 22 hr. Format: functional.
The subject of experiment [14] is Plenodomus biglobosus. Put plainly: Antifungal activity against Leptosphaeria biglobosa assessed as inhibition of conidia germination at 4 ug/ml after 22 hr. It counts as functional.
Experiment [15] has as its system Plenodomus biglobosus. The experiment is described as follows: Antifungal activity against Leptosphaeria biglobosa assessed as viable ascospore at 1 to 4 ug/ml after 1 week. It counts as functional, organism-based.
Experiment [16] deals with Plenodomus lingam. The experiment is described as follows: Antifungal activity against Leptosphaeria maculans assessed as viable conidia at 2 to 4 ug/ml after 1 week. It counts as functional, organism-based.
The subject of experiment [17] is Plenodomus lingam. The experiment is described as follows: Antifungal activity against Leptosphaeria maculans assessed as inhibition of mycelial growth after 17 days. Format: functional. The conditions noted are these: 408 h, read-out: ED50 (the source's name).
In experiment [18] the test system is Plenodomus lingam. The experiment is described as follows: Antifungal activity against Leptosphaeria maculans assessed as viable conidia at 0.25 to 1 ug/ml after 1 week. It counts as functional, organism-based.
Experiment [19] relates to Plenodomus biglobosus. The experiment is described as follows: Antifungal activity against Leptosphaeria biglobosa assessed as reduction of conidia production at 0.25 to 1 ug/ml after 2 weeks. Format: functional, organism-based.
Experiment [20] has as its system Plenodomus lingam. Put plainly: Antifungal activity against Leptosphaeria maculans assessed as viable ascospore at 0.25 to 1 ug/ml after 1 week. It counts as functional, organism-based.
Experiment [21] deals with Plenodomus biglobosus. The experiment is described as follows: Antifungal activity against Leptosphaeria biglobosa assessed as reduction of germ tube length at 0.25 ug/ml after 22 hr relative to control. Format: functional. Further details: scale not given: the % may be the effect or the level left.
In experiment [22] the test system is Plenodomus biglobosus. The experiment is described as follows: Antifungal activity against Leptosphaeria biglobosa assessed as reduction of germ tube length at 0.5 ug/ml after 22 hr relative to control. It counts as functional. Further details: scale not given: the % may be the effect or the level left.
Experiment [23] deals with Plenodomus biglobosus. The experiment is described as follows: Antifungal activity against Leptosphaeria biglobosa assessed as inhibition of conidia germination at 0.25 to 1 ug/ml after 22 hr. Format: functional, organism-based.
In experiment [24] the test system is Plenodomus biglobosus. Put plainly: Antifungal activity against Leptosphaeria biglobosa assessed as viable ascospore at 0.25 to 1 ug/ml after 1 week. Format: functional, organism-based.
The test system of experiment [25] is Plenodomus lingam. The experiment is described as follows: Antifungal activity against Leptosphaeria maculans assessed as reduction of germ tube length at 0.5 ug/ml after 22 hr relative to control. It counts as functional. Also on record: scale not given: the % may be the effect or the level left.
Experiment [26] relates to Plenodomus biglobosus. The experiment is described as follows: Antifungal activity against Leptosphaeria biglobosa assessed as viable conidia at 0.25 to 1 ug/ml after 1 week. It counts as functional, organism-based.
For experiment [27], the system named is Plenodomus lingam. The experiment is described as follows: Antifungal activity against Leptosphaeria maculans assessed as reduction of germ tube length at 0.25 ug/ml after 22 hr relative to control. Format: functional. Further details: scale not given: the % may be the effect or the level left.
The test system of experiment [28] is Plenodomus lingam. The experiment is described as follows: Antifungal activity against Leptosphaeria maculans assessed as reduction of conidia production at 0.25 to 1 ug/ml after 2 weeks. It counts as functional, organism-based.
Experiment [29] concerns Plenodomus biglobosus. The experiment is described as follows: Antifungal activity against Leptosphaeria biglobosa assessed as inhibition of mycelial growth after 7 days. Format: functional. The conditions noted are these: 168 h, read-out: ED50 (the source's name).
The test system of experiment [30] is Plenodomus lingam. The experiment is described as follows: Antifungal activity against Leptosphaeria maculans assessed as inhibition of conidia germination at 0.25 to 1 ug/ml after 22 hr. Format: functional, organism-based.
In experiment [31] the test system is Plenodomus lingam. Put plainly: Antifungal activity against Leptosphaeria maculans assessed as ascospore germination at 0.25 to 1 ug/ml after 22 hr. It counts as functional.
For experiment [32], the system named is Plenodomus biglobosus. Put plainly: Antifungal activity against Leptosphaeria biglobosa assessed as ascospore germination at 0.25 to 1 ug/ml after 22 hr. Format: functional.
The subject of experiment [33] is Plenodomus lingam. The experiment is described as follows: Antifungal activity against Leptosphaeria maculans. Format: functional. As to conditions: read-out: ED50 (the source's name).
In experiment [34] the test system is Plenodomus biglobosus. Put plainly: Antifungal activity against Leptosphaeria biglobosa assessed as reduction of germ tube length at 0.75 ug/ml after 22 hr relative to control. Format: functional. Further details: scale not given: the % may be the effect or the level left.
Experiment [35] relates to Plenodomus lingam. The experiment is described as follows: Antifungal activity against Leptosphaeria maculans assessed as inhibition of conidia germination at 0.75 to 3 ug/ml after 22 hr. It counts as functional, organism-based.
In experiment [36] the test system is Plenodomus biglobosus. The experiment is described as follows: Antifungal activity against Leptosphaeria biglobosa assessed as reduction of germ tube length at 1.5 ug/ml after 22 hr relative to control. Format: functional. Further details: scale not given: the % may be the effect or the level left.
Experiment [37] has as its system Plenodomus biglobosus. The experiment is described as follows: Antifungal activity against Leptosphaeria biglobosa assessed as reduction of conidia production at 0.75 to 3 ug/ml after 2 weeks. Format: functional, organism-based.
Experiment [38] concerns Plenodomus lingam. Put plainly: Antifungal activity against Leptosphaeria maculans assessed as reduction of conidia production at 0.75 to 3 ug/ml after 2 weeks. Format: functional, organism-based.
Experiment [39] relates to Plenodomus biglobosus. The experiment is described as follows: Antifungal activity against Leptosphaeria biglobosa assessed as viable conidia at 0.75 to 3 ug/ml after 1 week. Format: functional, organism-based.
The test system of experiment [40] is Plenodomus lingam. The experiment is described as follows: Antifungal activity against Leptosphaeria maculans assessed as reduction of germ tube length at 0.75 ug/ml after 22 hr relative to control. It counts as functional. Also on record: scale not given: the % may be the effect or the level left.
The subject of experiment [41] is Plenodomus lingam. Put plainly: Antifungal activity against Leptosphaeria maculans assessed as viable conidia at 0.75 to 3 ug/ml after 1 week. Format: functional, organism-based.
Experiment [42] deals with Plenodomus biglobosus. Put plainly: Antifungal activity against Leptosphaeria biglobosa assessed as ascospore germination at 0.75 to 3 ug/ml after 22 hr. Format: functional.
In experiment [43] the test system is Plenodomus lingam. The experiment is described as follows: Antifungal activity against Leptosphaeria maculans assessed as reduction of germ tube length at 3 ug/ml after 22 hr relative to control. It counts as functional. Also on record: scale not given: the % may be the effect or the level left.
The test system of experiment [44] is Plenodomus lingam. Put plainly: Antifungal activity against Leptosphaeria maculans assessed as reduction of germ tube length at 1.5 ug/ml after 22 hr relative to control. It counts as functional. Further details: scale not given: the % may be the effect or the level left.
For experiment [45], the system named is Plenodomus lingam. The experiment is described as follows: Antifungal activity against Leptosphaeria maculans assessed as ascospore germination at 0.75 to 3 ug/ml after 22 hr. Format: functional.
Experiment [46] has as its system Plenodomus biglobosus. Put plainly: Antifungal activity against Leptosphaeria biglobosa assessed as inhibition of conidia germination at 0.75 to 3 ug/ml after 22 hr. It counts as functional, organism-based.
In experiment [47] the test system is Plenodomus lingam. Put plainly: Antifungal activity against Leptosphaeria maculans assessed as viable ascospore at 0.75 to 3 ug/ml after 1 week. Format: functional, organism-based.
The subject of experiment [48] is Plenodomus biglobosus. The experiment is described as follows: Antifungal activity against Leptosphaeria biglobosa assessed as viable ascospore at 0.75 to 3 ug/ml after 1 week. Format: functional, organism-based.
Experiment [49] has as its system Plenodomus biglobosus. Put plainly: Antifungal activity against Leptosphaeria biglobosa assessed as reduction of germ tube length at 3 ug/ml after 22 hr relative to control. Format: functional. Also on record: scale not given: the % may be the effect or the level left.

A word on the inhibition: it is how much of the control response was suppressed. As to `CCCCNC(=O)n1c(NC(=O)OC)nc2ccccc21` [BENOMYL], the Activity in experiment [1] amounted to 46.8%; in experiment [4] it was 81.6%; in experiment [6] it was 65.8%; in experiment [7], 4.5%; in experiment [9] it was 85.5%; in experiment [10], 68.3%. The figures for the Activity in experiment [12] and in experiment [13] were 96% and 94%, respectively. For the same compound, the outcome in experiment [2], in experiment [5] and in [16] was Active. In addition, the outcome in experiment [3], in experiment [11] and in [15] was inactive. In addition, the inhibition at 4 µg/mL is > 80% in experiment [8] and 15% in [14].
For the compound `C[Si](Cn1cncn1)(c1ccc(F)cc1)c1ccc(F)cc1` [FLUSILAZOLE], the Activity in experiment [1] worked out at 22.5%; in experiment [7], 53.8%; in experiment [21], 56.9%; in experiment [22], 56.3%; in experiment [25], 22.1%; in experiment [27], 15.9%. Also, the Activity was determined as 96% in experiment [31] and 94% in experiment [32]. The figures for the EC50 in experiment [17] and in experiment [29] were 0.27 µg/mL (≈ 0.856 µM) and 0.67 µg/mL (≈ 2.12 µM), respectively. Also, the outcome in [18], in experiment [20], in [24], in experiment [26] and in experiment [28] was inactive. Also, in [19], the result was Active. The inhibition result in experiment [23] and in experiment [30] was “Active” each time.
Take `OC(Cn1cncn1)(c1ccc(F)cc1)c1ccccc1F` (stereo not drawn) [FLUTRIAFOL]: in experiment [33], the EC50 turned out to be 0.45 µg/mL (≈ 1.49 µM).
In the case of `CC(C)(C)C(O)(CCc1ccc(Cl)cc1)Cn1cncn1` (stereo not drawn) [TEBUCONAZOLE], the Activity in [34] was determined as 64.3%; in [36], 63.4%; in experiment [40] it was 44%; in experiment [42], 94%; in experiment [43] it was 43.2%; in [44] it was 36.7%. The Activity in experiment [45] worked out at 96%; in experiment [49] it was 69.6%. Further, the EC50 was found to be 0.34 µg/mL (≈ 1.1 µM) in experiment [17] and 1.45 µg/mL (≈ 4.71 µM) in experiment [29]. Further, the inhibition entry in experiment [35] and in experiment [46] was “Active” throughout. For the same compound, the result in experiment [37] was Active. The result in experiment [38], in [39], in experiment [41], in experiment [47] and in experiment [48] was inactive.

Values taken from ChEMBL document CHEMBL3046617, “Effects of fungicides on in vitro spore germination and mycelial growth of the phytopathogens Leptosphaeria maculans and L. biglobosa (phoma stem canker of oilseed rape)” (2010).
